Results from US20090170813A1, “Hypophosphorous Acid Derivatives and their Therapeutical Applications” (priority 2005, published 2009).

Molecular target: T1, rat mGlu4 (Rattus norvegicus, UniProt P31423)
T1 construct: expressed in transfected cells; host or cells: HEK293
Experiment: Agonist activity, [3H]phosphatidylinositol accumulation in HEK293 cells transfected with rat mGlu4 and Gqi9
Assay type: cell-based
Conditions: for EC50: Table 2, n in brackets, read-out: mGlu4 EC50 μM (n); for mGlu4 agonist character (partial): Table 2, remark beside EC50
Description: Agonist activity of the compounds was tested on HEK293 cells transiently transfected with rat mGlu4 expressing plasmid pRKG4 and chimeric G-protein Gqi9 by electroporation, as described by Gomeza, J. et al, Mol. Pharmacol; 1996, 50, 923-930.
Cells were plated in 96-well culture plates and labeled overnight with [^3H]myoinositol. The day after, cells were washed three times with Krebs buffer, incubated for 10 min with LiCl 5 mM, and then incubated for 30 min in the absence (basal) or in the presence of the indicated compounds at 1 nM up to 1000 μM. The total amount of [^3H]phosphatidylinositol accumulated in the cells was determined after Dowex purification as previously by Goudet C, et al, Prod. Natl. Acad. Sci. USA 2004, 101, 378-383.
The response dosis curves were adjusted by using equatrier y=[(Ymax−ymin)/(1+(x/EC50)^n)]+ymin where EC50 is the concentration necessary for obtaining half of the maximal effect and n is Hill coefficient.

T1 sequence (P31423 33-912): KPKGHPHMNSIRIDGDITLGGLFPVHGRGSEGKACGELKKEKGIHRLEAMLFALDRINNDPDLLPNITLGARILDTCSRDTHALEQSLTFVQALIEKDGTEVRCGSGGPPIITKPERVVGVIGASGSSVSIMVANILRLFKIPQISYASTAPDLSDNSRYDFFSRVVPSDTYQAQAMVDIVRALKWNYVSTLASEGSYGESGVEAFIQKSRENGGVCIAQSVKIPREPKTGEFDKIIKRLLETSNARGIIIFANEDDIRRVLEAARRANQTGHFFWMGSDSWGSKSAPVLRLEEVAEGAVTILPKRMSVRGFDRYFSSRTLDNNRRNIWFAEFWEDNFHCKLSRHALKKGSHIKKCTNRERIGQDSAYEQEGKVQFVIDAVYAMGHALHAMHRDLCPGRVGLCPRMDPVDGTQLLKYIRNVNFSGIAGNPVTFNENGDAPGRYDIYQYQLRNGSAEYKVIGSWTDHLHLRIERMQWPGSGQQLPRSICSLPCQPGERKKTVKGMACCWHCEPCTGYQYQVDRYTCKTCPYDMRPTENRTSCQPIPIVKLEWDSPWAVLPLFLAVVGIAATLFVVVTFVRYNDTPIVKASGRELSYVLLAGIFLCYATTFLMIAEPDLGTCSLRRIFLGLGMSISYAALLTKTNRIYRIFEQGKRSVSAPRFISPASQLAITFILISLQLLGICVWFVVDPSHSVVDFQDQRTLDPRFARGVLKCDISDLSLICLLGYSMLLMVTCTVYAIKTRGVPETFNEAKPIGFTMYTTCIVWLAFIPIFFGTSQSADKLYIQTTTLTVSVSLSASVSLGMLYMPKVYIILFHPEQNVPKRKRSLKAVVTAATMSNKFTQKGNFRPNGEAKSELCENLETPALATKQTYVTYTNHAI

Structure (SMILES)	EC50 [µM]	also measured
N[C@@H](CCP(=O)(O)C(O)c1ccc(C(F)(F)F)c([N+](=O)[O-])c1)C(=O)O (stereo partly shown) [Compound 38]	0.28	
NC(CCP(=O)(O)CCCCC(=O)O)C(=O)O (stereo not shown) [Compound 60, 5-[((3-Amino-3-carboxy)propyl)(hydroxy)phosphinyl]pentanoic Acid]		mGlu4 activity at 100 μM: inactive at 100 μM (1)
N[C@@H](CCP(=O)(O)C(O)c1ccccc1C(=O)O)C(=O)O (stereo partly drawn) [Compound 22, (3S)-2-[(((3-amino-3-carboxy)propyl)(hydroxy)phosphinyl)-hydroxymethyl]benzoic Acid]		mGlu4 activity at 100 μM: inactive at 100 μM
NC(CCP(=O)(O)C(CC(=O)O)C(=O)O)C(=O)O (stereo not shown) [Compound 11]	59	
N[C@@H](CCP(=O)(O)C(O)c1ccc([N+](=O)[O-])cc1[N+](=O)[O-])C(=O)O (stereo partly drawn) [Compound 70, (3S)-4-[(((3-amino-3-carboy)propyl)(hydroxy)phosphinyl)-hydroxymethyl]-1,3-dinitrobenzene]	1	
N[C@@H](CCP(=O)(O)C(O)c1cc([N+](=O)[O-])cc([N+](=O)[O-])c1O)C(=O)O (stereo partly drawn) [Compound 76, (3S)-3-[(((3-amino-3-carboxy)propyl)(hydroxy)phosphinyl)-hydroxymethyl] 2-hydroxy-1,5-dinitrobenzene]	2.3	
N[C@@H](CCP(=O)(O)C1COC(=O)C1)C(=O)O (stereo partly drawn) [Compound 36, (3S)-4-[((3-amino-3-carboxy)propyl)(hydroxy)phosphinyl]furanone]	11.5	mGlu4 agonist character (partial): partial
N[C@@H](CCP(=O)(O)CC(=O)O)C(=O)O [Compound 26, (3S)-2-[((3-amino-3-carboxy)propyl)(hydroxy)phosphinyl]ethanoic Acid]	3.8	
N[C@@H](CCP(=O)(O)CCP(=O)(O)O)C(=O)O [Compound 42, (3S)-3-[((3-Amino-3-carboxy)propyl)(hydroxy)phosphinyl]ethylphosphonate]		mGlu4 % max at 100 μM: 40% max at 100 μM (1)
NC(CP(=O)(O)CCC(=O)O)C(=O)O (stereo not shown) [Compound 14]		mGlu4 activity at 100 μM: inactive at 100 μM (1) . . .
N[C@@H](CCP(=O)(O)C(O)c1ccc(C(=O)O)cc1)C(=O)O (stereo partly drawn) [Compound 40, (3S)-4-[(((3-amino-3-carboxy)propyl)(hydroxy)phosphinyl)-hydroxymethyl]benzoic Acid]	31.8	
N[C@@H](CCP(=O)(O)CCC(=O)O)C(=O)O [Compound 7, (3S)-3-[((3-Amino-3-carboxy)propyl)(hydroxy)phosphinyl]propanoic Acid]	6.4	
N[C@@H](CCP(=O)(O)C(O)c1cccc(C(=O)O)c1)C(=O)O (stereo partly drawn) [Compound 24, (3S)-3-[(((3-amino-3-carboxy)propyl)(hydroxy)phosphinyl)-hydroxymethyl]benzoic Acid]	20.8	
N[C@@H](CCP(=O)(O)C(CC(=O)O)C(F)(F)F)C(=O)O (stereo partly drawn) [Compound 28, (3S)-3-[((3-amino-3-carboxy)propyl)(hydroxy)phosphinyl]-3-trifluoromethylpropanoic Acid]		mGlu4 % max at 100 μM: 60% max at 100 μM (1)
N[C@@H](CCP(=O)(O)Cc1cccc(C(=O)O)c1)C(=O)O [Compound 46, (3S)-3-[(((3-amino-3-carboxy)propyl)(hydroxy)phosphinyl)-methyl]benzoic Acid]		mGlu4 % max at 100 μM: 33% max at 100 μM (1)
N[C@@H](CCP(=O)(O)C(CC(=O)O)CP(=O)(O)O)C(=O)O (stereo partly shown) [Compound 44]		mGlu4 % max at 100 μM: 33% max at 100 μM (1)
N[C@@H](CCP(=O)(O)C(O)c1cc([N+](=O)[O-])cc([N+](=O)[O-])c1)C(=O)O (stereo partly drawn) [Compound 97, (3S)-3-[(((3-amino-3-carboxy)propyl)(hydroxy)phosphinyl)-hydroxymethyl] 1,5-dinitrobenzene]	0.81	
N[C@@H](CCP(=O)(O)C(CC(=O)O)CC(=O)O)C(=O)O [Compound 16, (3S)-3-[(((3-amino-3-carboxy)propyl)(hydroxy)phosphinyl)-methyl]pentane-1,5-dioic Acid]		mGlu4 % max at 100 μM: 10% max at 100 μM (1)
N[C@@H](CCP(=O)(O)C(O)c1c([N+](=O)[O-])cccc1[N+](=O)[O-])C(=O)O (stereo partly drawn) [Compound 90, (3S)-2-[(((3-amino-3-carboxy)propyl)(hydroxy)phosphinyl)-hydroxymethyl] 1,3-dinitro benzene]	1.96	
C/C(=C\C(=O)O)C(O)P(=O)(O)CC[C@H](N)C(=O)O (stereo partly drawn) [Compound 31, (3S)-4-[((3-amino-3-carboxy)propyl)(hydroxy)phosphinyl]-4-hydroxy-3-methyl-2-butenoic Acid]		mGlu4 activity at 100 μM: inactive at 100 μM (1)
N[C@@H](CCP(=O)(O)C(O)C1CC1C(=O)O)C(=O)O (single isomer, unassigned) [CS159]	12.9	mGlu4 agonist character (partial): partial
N[C@@H](CCP(=O)(O)C(O)C1CC1C(=O)O)C(=O)O (single isomer, unassigned) [CS158]	5.1	
N[C@@H](CCP(=O)(O)CCCC(=O)O)C(=O)O [Compound 48, (3S)-4-[((3-Amino-3-carboxy)propyl)(hydroxy)phosphinyl]butanoic Acid]		mGlu4 % max at 100 μM: 80% max at 100 μM (1)

Second part, led by results:

EC50 [µM]	Structure (SMILES)	also measured
1.5	COc1cc(C(O)P(=O)(O)CC[C@H](N)C(=O)O)cc([N+](=O)[O-])c1O (stereo partly drawn) [Compound 64, (3S)-3-[(((3-amino-3-carboxy)propyl)(hydroxy)phosphinyl)-hydroxymethyl]-5-methoxy-6-hydroxy-1-nitrobenzene]	
2	N[C@@H](CCP(=O)(O)C(O)c1ccc(O)c([N+](=O)[O-])c1)C(=O)O (stereo partly drawn) [Compound 62, (3S)-3-[(((3-amino-3-carboxy)propyl)(hydroxy)phosphinyl)-hydroxymethyl]-6-hydroxy-1-nitrobenzene]	
1.17	N[C@@H](CCP(=O)(O)C(O)c1cc([N+](=O)[O-])ccc1O)C(=O)O (stereo partly drawn) [Compound 82, (3S)-3-[(((3-amino-3-carboxy)propyl)(hydroxy)phosphinyl)-hydroxymethyl] 4-hydroxy-nitrobenzene]	
> 100	CS(=O)(=O)c1ccc(C(O)P(=O)(O)CC[C@H](N)C(=O)O)cc1 (stereo partly drawn) [Compound 74, (3S)-4-[(((3-amino-3-carboxy)propyl)(hydroxy)phosphinyl)-hydroxymethyl]methylsulphonylbenzene]	
5.19	N[C@@H](CCP(=O)(O)C(O)c1c(F)c(F)c(F)c(F)c1F)C(=O)O (stereo partly drawn) [Compound 80, (3S)-1-[(((3-amino-3-carboxy)propyl)(hydroxy)phosphinyl)-hydroxymethyl] 2,3,4,5,6-pentafluorobenzene]	
2.89	COc1ccc(C(O)P(=O)(O)CC[C@H](N)C(=O)O)cc1[N+](=O)[O-] (stereo partly drawn) [Compound 58, (3S)-3-[(((3-amino-3-carboxy)propyl)(hydroxy)phosphinyl)-hydroxymethyl] 3-nitro-4-methoxybenzene]	
0.31	N[C@@H](CCP(=O)(O)C(O)c1ccc([N+](=O)[O-])s1)C(=O)O (stereo partly drawn) [Compound 86, (3S)-2-[(((3-amino-3-carboxy)propyl)(hydroxy)phosphinyl)-hydroxymethyl] 5-nitrothiophene]	
15.2	N[C@@H](CCP(=O)(O)C(O)c1cccc([N+](=O)[O-])c1O)C(=O)O (stereo partly drawn) [Compound 78, (3S)-3-[(((3-amino-3-carboxy)propyl)(hydroxy)phosphinyl)-hydroxymethyl] 2-hydroxy-nitrobenzene]	
0.63	N[C@@H](CCP(=O)(O)C(O)c1cccc([N+](=O)[O-])c1)C(=O)O (stereo partly drawn) [Compound 56, (3S)-3-[(((3-amino-3-carboxy)propyl)(hydroxy)phosphinyl)-hydroxymethyl] 3-nitrobenzene]	
2.74	N[C@@H](CCP(=O)(O)C(O)c1ccc(Cl)c([N+](=O)[O-])c1)C(=O)O (stereo partly drawn) [Compound 66, (3S)-3-[(((3-amino-3-carboxy)propyl)(hydroxy)phosphinyl)-hydroxymethyl]-6-chloro-1-nitrobenzene]	
22.2	N[C@@H](CCP(=O)(O)C(O)c1ccc(C(F)(F)F)cc1)C(=O)O (stereo partly shown) [Compound 54]	
1.69	Cc1ccc(C(O)P(=O)(O)CC[C@H](N)C(=O)O)cc1[N+](=O)[O-] (stereo partly shown) [Compound 52]	
1.98	N[C@@H](CCP(=O)(O)C(O)c1ccc(C(F)(F)F)o1)C(=O)O (stereo partly drawn) [Compound 88, (3S)-2-[(((3-amino-3-carboxy)propyl)(hydroxy)phosphinyl)-hydroxymethyl] 5-trifluoromethylfuran]	
> 100	N[C@@H](CCP(=O)(O)C(O)c1ccc(N2CCOCC2)c([N+](=O)[O-])c1)C(=O)O (stereo partly drawn) [Compound 68, (3S)-3-[(((3-amino-3-carboxy)propyl)(hydroxy)phosphinyl)-hydroxymethyl]-6-morpholino-1-nitro benzene]	
0.087	N[C@@H](CCP(=O)(O)C(O)c1ccc([N+](=O)[O-])o1)C(=O)O (stereo partly drawn) [Compound 84, (3S)-2-[(((3-amino-3-carboxy)propyl)(hydroxy)phosphinyl)-hydroxymethyl] 5-nitrofuran]	
0.93	N[C@@H](CCP(=O)(O)C(O)c1ccc([N+](=O)[O-])cc1)C(=O)O (stereo partly drawn) [Compound 72, (3S)-4-[(((3-amino-3-carboxy)propyl)(hydroxy)phosphinyl)-hydroxymethyl] nitrobenzene]	
0.305	N[C@@H](CCP(=O)(O)C(O)c1ccc([N+](=O)[O-])c(C(F)(F)F)c1)C(=O)O (stereo partly drawn) [Compound 94, (3S)-4-[(((3-amino-3-carboxy)propyl)(hydroxy)phosphinyl)-hydroxymethyl] 2-trifluoro methyl-1-nitrobenzene]	
1.02	N[C@@H](CCP(=O)(O)C(O)c1ccc(F)c([N+](=O)[O-])c1)C(=O)O (stereo partly shown) [Compound 50]	
